# Measured values from patent publication US12655185B2, “Peptide inhibitors of interleukin-23 and their use to treat inflammatory diseases” (Protagonist Therapeutics, Inc., priority 2016, dated 2026).
# pIC50: −log10 of the molar value. Bridge positions count the residues as written; N and C are the ends. Peptide text beside a SMILES is read from it.
# Experiments:
# [1] = molecular target: T1, mouse IL-23 binding to mouse IL-23R (Mus musculus, UniProt P43432+Q9EQ14); experiment: Mouse IL23/IL23R huFc ELISA; details: data not shown
# T1 sequence (Q9EQ14 22-196): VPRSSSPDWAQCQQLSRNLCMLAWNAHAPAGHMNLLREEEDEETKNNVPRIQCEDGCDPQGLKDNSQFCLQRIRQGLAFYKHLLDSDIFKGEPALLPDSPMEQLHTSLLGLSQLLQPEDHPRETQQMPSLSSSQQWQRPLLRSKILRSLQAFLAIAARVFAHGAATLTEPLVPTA
# T1 sequence (P43432 23-335): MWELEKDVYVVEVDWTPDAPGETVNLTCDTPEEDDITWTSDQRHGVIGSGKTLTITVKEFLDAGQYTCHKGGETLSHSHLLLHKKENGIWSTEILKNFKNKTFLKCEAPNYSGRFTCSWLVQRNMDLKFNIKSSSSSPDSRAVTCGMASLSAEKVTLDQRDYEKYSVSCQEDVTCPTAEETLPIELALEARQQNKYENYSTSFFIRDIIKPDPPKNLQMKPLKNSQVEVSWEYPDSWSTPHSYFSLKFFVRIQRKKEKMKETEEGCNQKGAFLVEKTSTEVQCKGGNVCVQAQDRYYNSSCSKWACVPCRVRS
# Protocol: Certain peptides were tested to identify peptides that inhibit the binding of IL-23 to human IL-23R or mouse IL-23R, and inhibit IL-23/IL-23R functional activity, as described below. Each of these peptides comprised a disulfide bond between X5 and X34, except for Peptide 1, which comprises a disulfide bond between X4 and X33.
# [2] = molecular target: T2, IL-12 binding to human IL-12Rβ1_huFC (Homo sapiens, UniProt P29459+P29460); experiment: Human IL12/IL12Rβ1 huFc ELISA
# T2 sequence (P29459 23-219): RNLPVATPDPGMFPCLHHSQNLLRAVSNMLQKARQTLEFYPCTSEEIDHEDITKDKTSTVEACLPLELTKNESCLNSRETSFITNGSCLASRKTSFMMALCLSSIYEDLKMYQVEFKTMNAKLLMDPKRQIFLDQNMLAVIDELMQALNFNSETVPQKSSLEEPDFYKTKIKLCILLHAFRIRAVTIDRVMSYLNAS
# T2 sequence (P29460 23-328): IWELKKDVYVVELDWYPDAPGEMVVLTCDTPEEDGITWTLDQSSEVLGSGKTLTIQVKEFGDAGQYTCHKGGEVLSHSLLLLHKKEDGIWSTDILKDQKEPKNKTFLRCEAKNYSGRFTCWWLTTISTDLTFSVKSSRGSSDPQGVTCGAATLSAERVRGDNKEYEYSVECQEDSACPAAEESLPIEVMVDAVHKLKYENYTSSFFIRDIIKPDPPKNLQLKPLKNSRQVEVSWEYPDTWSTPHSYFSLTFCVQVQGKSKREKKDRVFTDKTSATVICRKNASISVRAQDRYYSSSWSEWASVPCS
# Protocol: (§1) The ability of Peptide 10 to block binding of IL-23 to IL-12Rβ1 or binding of IL-12 to IL-12Rβ1 was also determined. Human IL-12Rβ1 ELISA assays were performed as follows: an assay plate was coated with 100 ng/well of human IL-12Rβ1_huFC and incubated overnight at 4° C. The wells were washed, blocked, and washed again. Serial dilutions of test peptides and either IL-23 or IL-12 at a fixed concentration corresponding to EC50 values were added to each well, and incubated for 2 hours at room temperature. After the wells were washed, bound IL-23 were detected with goat anti-p40 polyclonal antibodies followed by an HRP conjugated donkey anti-goat IgG, and bound IL-12 were detected with a biotin conjugated anti-p40 monoclonal antibody followed by HRP conjugated streptavidin. Signals were visualized with TMB One Component HRP Membrane Substrate and quenched with 2 M sulfuric acid.
# [3] = molecular target: IL-6 binding to IL-6R (Homo sapiens, UniProt P05231); experiment: Binding of IL-6 to IL-6R; details: data not shown
# [4] = molecular target: IL-13 binding to IL-13Ra1 (Homo sapiens, UniProt P35225); experiment: Binding of IL-13 to IL-13Ra1; details: data not shown
# [5] = molecular target: T3, IL-23 binding to IL23R_huFC (human IL-23R) (Homo sapiens, UniProt P29460+Q9NPF7); experiment: IL23-IL23R Competitive Binding ELISA; details: inhibition of IL-23/IL-23R binding; IL-23 0.9 nM; class symbols; read-out: IC50 IL23R_huFC
# T3 sequence (Q9NPF7 20-189): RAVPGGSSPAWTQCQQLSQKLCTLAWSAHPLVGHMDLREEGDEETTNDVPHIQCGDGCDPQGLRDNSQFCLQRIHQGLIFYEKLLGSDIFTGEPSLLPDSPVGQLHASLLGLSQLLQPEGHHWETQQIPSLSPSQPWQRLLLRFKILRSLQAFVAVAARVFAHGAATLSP
# T3 sequence (P29460 23-328): T2 sequence (P29460 23-328)
# Protocol: Immulon® 4HBX plate was coated with 200 ng/well of IL23R_huFC and incubated overnight at 4° C. […] Serial dilutions of test peptides and IL-23 at a final concentration of 0.9 nM diluted in PBS were added to each well and incubated for 2 hours at room temperature. After the wells were washed, bound IL-23 was detected by incubation with 50 ng/well of goat anti-p40 polyclonal antibodies (R&D Systems #AF309) diluted in PBS for 1 hour at room temperature. The wells were again washed four times with PBST. […] The plate was finally washed as above. Signals were visualized with TMB One Component HRP Membrane Substrate, quenched with 2 M sulfuric acid and read spectrophotometrically at 450 nm.
# [6] = system: human IL-23-dependent release of IL-17 from mouse splenocytes; experiment: Mouse splenocyte assay; format: cell-based; details: IL-17A release; IL-23 20 ng/mL; 67 hours
# Protocol: Frozen mouse splenocytes (Hooke Lab), suspended in RPMI Medium 1640 (Life technologies #22400-089) supplemented with 10% heat inactivated FBS (Life technologies #16140-071), 1×MEM Non-Essential Amino Acid Solution (Life technologies #11140-050), 1 mM sodium pyruvate (Life technologies #11360-070), 100 units of Penicillin-Streptomycin (Life technologies #15140-122, 0.05 mM 2-mercaptoethanol (Life technologies #21985-023) and recombinant human IL-2 (R&D Systems #202-IL-010/CF), were seeded at 4×10E5 cells/well in a 96 well tissue culture plate. Serial dilutions of test peptides and IL-23 at a final concentration of 20 ng/mL were preincubated in a separate assay plate for 60 minutes at 37° C. in a 5% CO2 humidified incubator. Preincubated samples were then added to the culture plate containing splenocytes and incubated for an additional 67 hours at 37° C. in a 5% CO2 humidified incubator. A sandwich ELISA kit for mouse IL17A (Biolegend #436204) was used to measure the amount of IL-17A in each sample supernatants, according to manufacturer's instructions.
# [7] = molecular target: T4, IL-23 binding to human IL-12Rβ1_huFC (Homo sapiens, UniProt P29460+Q9NPF7); experiment: Human IL23/IL12Rβ1 huFc ELISA
# T4 sequence (Q9NPF7 20-189): T3 sequence (Q9NPF7 20-189)
# T4 sequence (P29460 23-328): T2 sequence (P29460 23-328)
# Protocol: as §1
structure (smiles),measurement,setting,value
CC[C@H](C)[C@@H]1NC(=O)[C@H](CCCCN)NC(=O)[C@H](C)NC(=O)[C@H](Cc2c[nH]c3ccccc23)NC(=O)[C@H](CCCNC(=N)N)NC(=O)[C@H](CCC(N)=O)NC(=O)[C@H](CCC(=O)O)NC(=O)[C@H](CCC(N)=O)NC(=O)[C@H](CC(N)=O)NC(=O)[C@H](CC(C)C)NC(=O)[C@H](CC(N)=O)NC(=O)[C@@H]2CCCN2C(=O)[C@H](CC(=O)O)NC(=O)[C@H](C(C)C)NC(=O)CNC(=O)[C@H](C)NC(=O)[C@H](CCC(=O)O)NC(=O)[C@H](CO)NC(=O)[C@H](CCSC)NC(=O)[C@H](CCCNC(=N)N)NC(=O)[C@H](CCCNC(=N)N)NC(=O)[C@H](CC(C)C)NC(=O)[C@@H](NC(=O)[C@H](CCC(N)=O)NC(=O)[C@H](CCSC)NC(=O)[C@H](CC(N)=O)NC(=O)[C@H](Cc2ccccc2)NC(C)=O)CSSC[C@@H](C(N)=O)NC(=O)[C@H](CC(=O)O)NC(=O)[C@H](CC(=O)O)NC(=O)[C@H](CCSC)NC(=O)[C@H]([C@@H](C)CC)NC(=O)[C@H](CO)NC(=O)[C@H](CCCCN)NC1=O [Peptide 10] (Ac-FNMQCLRRMSEAGVDPNLNQEQRWAKIKSIMDDC-NH2; disulfide 5-34),blocking of binding of mouse IL-23 to mouse IL-23R,[1],blocked
same,pIC50,"[2]; competition binding, IL-12 at EC50, read-out: Human IL12/IL12Rβ1huFc ELISA",< 4.00
same,blocking of binding of IL-12 to IL12Rβ1,[2]; result in words,did not block
same,blocking of binding of IL-6 to IL-6R,[3],did not block
same,blocking of binding of IL-13 to IL-13Ra1,[4],did not block
same,pIC50,[5],5.00 to 6.00
same,pIC50,[6],5.80
same,pIC50,"[7]; competition binding, IL-23 at EC50",< 4.00
same,blocking of binding of IL-23 to IL-12Rβ1,[7]; result in words,did not block
